In ChEMBL document CHEMBL1142729 (J Med Chem, 2005):

Columns and labels:
[1] = target: Carbonic anhydrase 2 (Homo sapiens, UniProt P00918); assay: Inhibitory constant value for Carbonic anhydrase II in human determined in pH-shift assay
[2] = Inhibition concentration for carbonic anhydrase I and carbonic anhydrase II in rat determined in CO2 hydration assay

Row | SMILES | IC50 [1] | IC50 [2]
1 | NS(=O)(=O)OCC1Oc2ccccc2O1 | 0.28 µM | –
2 | CC1(C)O[C@@H]2[C@@H](CO[C@@]3(COS(N)(=O)=O)OC(C)(C)O[C@@H]23)O1 [TOPIRAMATE] | – | 8.9 µM
